The subject of experiment [1] is D-apt3.1 (RNA, aptamer) GCCGCACUGGUGGGUCGGUGGGAAGCGGC
The experiment can be described thus: ligand fluorescence enhancement. The following applies: 150 mM KCl; 10 mM LiCaco pH 7.0; 1 μM RNA, 1 μM ligand; higher in K+ than Li+.

Experiment [2] concerns D-apt3.1e (RNA, aptamer) GCCGCAAUGGUGGGUAGGUGGGAAGCGGC
The experiment can be described thus: ligand fluorescence enhancement. The conditions noted are these: 150 mM KCl; 10 mM LiCaco pH 7.0; 1 μM RNA, 1 μM ligand; higher in K+ than Li+.

The test system of experiment [3] is FAM-D-(UG)12 mut1 (RNA, single strand) UGUAUGUGUAUGUGUAUGUGUAUG
The experiment can be described thus: NMM staining of native gel. The conditions noted are these: 150 mM KCl (gel: 50 mM potassium acetate); 10 mM Tris-HCl pH 7.5; 2.5 μM oligo; 1 μg/mL NMM highest tested; no band.

Experiment [4] relates to D-apt3.1h (RNA, aptamer) GCCGCACUGGUGGGUCGGUGGGGAGCGGC
The experiment can be described thus: ligand fluorescence enhancement. The conditions noted are these: 150 mM KCl; 10 mM LiCaco pH 7.0; 1 μM RNA, 1 μM ligand; higher in K+ than Li+.

Experiment [5] has as its system D-apt3.1g (RNA, aptamer) GCCGCACUGGCGGGUCGGUGGGAAGCGGC
The experiment can be described thus: ligand fluorescence enhancement. The conditions noted are these: 150 mM KCl; 10 mM LiCaco pH 7.0; 1 μM RNA, 1 μM ligand; higher in K+ than Li+.

For experiment [6], the system named is FAM-D-(UG)12 mut2 (RNA, single strand) UGUGCGUGUGCGUGUGCGUGUGCG
The experiment can be described thus: NMM staining of native gel. The following applies: 150 mM KCl (gel: 50 mM potassium acetate); 10 mM Tris-HCl pH 7.5; 2.5 μM oligo; 1 μg/mL NMM highest tested; no band.

In experiment [7] the test system is D-apt3.1i (RNA, aptamer) GCCGCACUGGUGGGUCGGUGGGAGGCGGC
Nature of the experiment: ligand fluorescence enhancement. The conditions noted are these: 150 mM KCl; 10 mM LiCaco pH 7.0; 1 μM RNA, 1 μM ligand; higher in K+ than Li+.

For experiment [8], the system named is FAM-D-(UG)12 (RNA, G4) UGUGUGUGUGUGUGUGUGUGUGUG
Nature of the experiment: EMSA competition. The following applies: 150 mM KCl, 1 mM MgCl2; 25 mM Tris-HCl pH 7.5, 37 °C; 250 nM L-apt3.1 (L-RNA aptamer) displaced; 10 nM RNA.

Experiment [9] deals with D-(UG)12 (RNA, G4) UGUGUGUGUGUGUGUGUGUGUGUG
The experiment can be described thus: fluorescence titration (microplate reader). The following applies: 150 mM KCl, 1 mM MgCl2; 25 mM Tris-HCl pH 7.5, 37 °C; 100 nM NMM, RNA varied; one-site fit.

Experiment [10] concerns FAM-D-(TG)12 (DNA, single strand) TGTGTGTGTGTGTGTGTGTGTGTG
Nature of the experiment: NMM staining of native gel. The following applies: 150 mM KCl (gel: 50 mM potassium acetate); 10 mM Tris-HCl pH 7.5; 2.5 μM oligo; 1 μg/mL NMM highest tested; no band.

Experiment [11] has as its system L-apt3.1 (L-RNA, aptamer, all L-ribonucleotides) GCCGCACUGGUGGGUCGGUGGGAAGCGGC
The experiment can be described thus: ligand fluorescence enhancement. The conditions noted are these: 150 mM KCl; 10 mM LiCaco pH 7.0; 1 μM RNA, 1 μM ligand; higher in K+ than Li+.

Experiment [12] concerns D-apt3.1b (RNA, aptamer) GCCGCACUUCUGGGGGGGUGGGAAGCGGC
Nature of the experiment: ligand fluorescence enhancement. The conditions noted are these: 150 mM KCl; 10 mM LiCaco pH 7.0; 1 μM RNA, 1 μM ligand; higher in K+ than Li+.

The structures appear in SMILES notation.

In the case of `CCc1c(C)c2cc3nc(cc4nc(cc5c(CC)c(C)c(cc1[nH]2)n5C)C(C)=C4CCC(=O)O)C(CCC(=O)O)=C3C`, the binding result in experiment [1] is given as “yes”; in experiment [2], “yes”; in experiment [3] it was “no”; in [4], “yes”; in experiment [5], “yes”; in [6], “no”. The binding entry in experiment [7] is listed as “yes”; in [10], “no”; in experiment [11], “yes”; in [12], “yes”. This compound showed an IC50 in [8] of 10.7 ± 1.1 µM. This compound also yielded a dissociation constant (Kd) in experiment [9] of 377.4 ± 100.6 nM.
`Cc1ccc2c(c1)sc(-c1ccc(N(C)C)cc1)[n+]2C`: the binding entry in experiment [1] and in [11] was “yes” throughout.

The record behind these values is paper PMC11890061 (2025).
